Test results taken from patent publication US20180042918A1, “RESPIRATORY INFECTION TREATING AGENT” (KYORIN PHARMACEUTICAL CO., LTD., priority 2015, published 2018).
≈ marks a conversion by molar mass, not a printed value. Like-named read-outs stand apart in the source and are kept apart here. Marks after values point to notes of the source that are not given here.

What was measured:
S. pneumoniae IID553 = assay: microbe, parasite or virus in culture; assay type: cell-based; conditions: Streptococcus pneumoniae
S. pneumoniae NF9884 = assay: microbe, parasite or virus in culture; assay type: cell-based; conditions: Streptococcus pneumoniae
S. pneumoniae CF9842 = assay: microbe, parasite or virus in culture; assay type: cell-based; conditions: Streptococcus pneumoniae
S. pneumoniae GF9821 = assay: microbe, parasite or virus in culture; assay type: cell-based; conditions: Streptococcus pneumoniae
S. pneumoniae ST9941 = assay: microbe, parasite or virus in culture; assay type: cell-based; conditions: Streptococcus pneumoniae
S. pneumoniae KY-9 [1] = assay: Antibacterial activity against Streptococcus pneumoniae in vitro, CLSI microdilution; assay type: cell-based; conditions: KY9
Procedure: The antibacterial activities in vitro of the compound D, garenoxacin, and levofloxacin against a strain in a mouse infected with Streptococcus pneumoniae (S. pneumonia KY-9) were measured in accordance with a CLSI microdilution method.

S. pneumoniae KY-9 [2] = assay: Number of bacteria in the lung, mouse lung infection; assay type: in vivo, Streptococcus pneumoniae
Procedure: S. pneumoniae KY-9 was inoculated at 7.4×10^5 CFU/mouse via the respiratory tract into the lung in a mouse in which cyclophosphamide had been administrated. 2.9 to 3.1 hours, 17.3 to 19.1 hours, and 24.4 to 26.1 hours after the inoculation, the drug (the compound D, levofloxacin, or garenoxacin) was subcutaneously administrated (SC) or orally administrated (PO) three times in total. The number of bacteria in the lung 16.5 to 17.0 hours after the final administration was measured.
“*” described in FIGS. 1 and 2 means that a significant difference of p<0.05 in a Vehicle group was observed, and “**” means that a significant difference of p<0.001 in the Vehicle group was observed (Dunnett's multiple comparison test, parametric).
Here, CFU is an abbreviation of Colony Forming Unit, and represents the unit of number of bacteria. Log CFU/Lung means the number of viable bacteria in the lung. Log CFU/Lung was determined as follows. The lung obtained from the mouse was homogenated to obtain a bacterial culture. The bacterial culture was appropriately diluted, applied to an agar plate medium, and cultured. Log CFU/Lung was determined on the basis of the number of developed colonies.

[3] = tested on: H. influenzaes (26 STRAINS); assay: Antibacterial activity against clinically isolated strains, MIC90; assay type: cell-based; conditions: Haemophilus influenzae, 26 clinically isolated strains
Procedure: (§1) The antibacterial activities in vitro of the compound D, garenoxacin, and levofloxacin against each clinically isolated strain of Streptococcus pneumoniae, Moraxella catarrhalis, and Haemophilus influenzae were measured in accordance with a CLSI microdilution method or a CLSI agar dilution method. A MIC90 value was the minimum concentration in which the growth of 90% strain of all the measured strains was inhibited.

[4] = tested on: M. catarrhalis (26 STRAINS); assay: as above; assay type: cell-based; conditions: Moraxella catarrhalis, 26 clinically isolated strains
Procedure: as §1

[5] = tested on: PCG-LOW SENSITIVE S. pneumoniae (22 STRAINS); assay: as above; assay type: cell-based; conditions: Streptococcus pneumoniae, 22 clinically isolated strains
Procedure: as §1

PSSP (26 STRAINS) = assay: as above; assay type: cell-based; conditions: Streptococcus pneumoniae, 26 clinically isolated strains
Procedure: as §1

S. aureus ATCC29213 [6] = assay: MIC of strain used for resistance frequency test; assay type: cell-based; conditions: Staphylococcus aureus; S. aureus ATCC29213; read-out: MIC
E. coli ATCC25922 [7] = assay: microbe, parasite or virus in culture; assay type: cell-based; conditions: Escherichia coli
S. aureus ATCC29213 [8] = assay: Frequency of development of resistant bacteria; assay type: cell-based, Staphylococcus aureus; conditions: for development of resistant bacteria (in words): S. aureus ATCC29213, 4 to 16 × MIC; for FREQUENCY OF DEVELOPMENT OF RESISTANT BACTERIA (AVERAGE OF TWO MEASURED VALUES): about 70 hours
Procedure: (§2) S. aureus ATCC29213 is Staphylococcus aureus, S. pneumoniae ATCC49619 is Streptococcus pneumoniae, and E. coli ATCC25922 is Escherichia coli. […]
(§3) The frequency of development of resistant bacteria was calculated by dividing the number of colonies developed on an agar medium having each drug concentration by the number of initially inoculated bacteria.

E. coli ATCC25922 [9] = assay: Frequency of development of resistant bacteria; assay type: cell-based, Escherichia coli; conditions: for FREQUENCY OF DEVELOPMENT OF RESISTANT BACTERIA (AVERAGE OF TWO MEASURED VALUES): about 70 hours
Procedure: as §2, §3

[10] = molecular target: QUINOLONE RESISTANT Topoisomerase IV (S. aureus) (Staphylococcus aureus, UniProt P0C1U9); assay: Enzyme inhibitory activity, decatenation of kinetoplast DNA; assay type: biochemical
Procedure: (§4) Agents Chemother. 45: 3544-3547 (2001). […] The measurement was performed in the same manner as in Test Example 3. Similarly, the inhibitory activities of ciproxacin, levofloxacin, and garenoxacin were measured. The results were compared.

[11] = molecular target: Topoisomerase IV (S. aureus) (Staphylococcus aureus, UniProt P0C1S7+P0C1U9); assay: as above; assay type: biochemical
Procedure: as §4

S. aureus MS5935 = assay: Antibacterial activity against quinolone-resistant strain in vitro, CLSI dilution; assay type: cell-based; conditions: Staphylococcus aureus; S. aureus MS5935, PARENT STRAIN, gyrA None, grlA None
[12] = tested on: S. aureus MS5935 gyrA mutant; assay: microbe, parasite or virus in culture; assay type: cell-based; conditions: Staphylococcus aureus
S. aureus MS5935 1st = assay: microbe, parasite or virus in culture; assay type: cell-based; conditions: Staphylococcus aureus, MS59351ST
S. aureus MS5935 2nd = assay: microbe, parasite or virus in culture; assay type: cell-based; conditions: Staphylococcus aureus, MS59352ND
S. aureus MS5935 3rd = assay: microbe, parasite or virus in culture; assay type: cell-based; conditions: Staphylococcus aureus, MS59353RD
S. aureus MS5935 4th = assay: microbe, parasite or virus in culture; assay type: cell-based; conditions: for MIC: Staphylococcus aureus, MS59354TH
[13] = molecular target: Topoisomerase IV (S. pneumoniae IID553) (Streptococcus pneumoniae serotype 4, UniProt P72525+Q59961); assay: Enzyme inhibitory activity, decatenation of kinetoplast DNA

Row | SMILES | MIC (S. pneumoniae IID553) [µg/mL] | MIC (S. pneumoniae NF9884) [µg/mL] | MIC (S. pneumoniae CF9842) [µg/mL] | MIC (S. pneumoniae GF9821) [µg/mL] | MIC (S. pneumoniae ST9941) [µg/mL] | MIC (S. pneumoniae KY-9 [1]) [µg/mL] | MIC90 [3] [µg/mL] | MIC90 [4] [µg/mL] | MIC90 [5] [µg/mL] | MIC90 (PSSP (26 STRAINS)) [µg/mL] | MIC (S. aureus ATCC29213 [6]) [µg/mL] | MIC (E. coli ATCC25922 [7]) [µg/mL] | development of resistant bacteria (in words) (S. aureus ATCC29213 [8]) | FREQUENCY OF DEVELOPMENT OF RESISTANT BACTERIA (AVERAGE OF TWO MEASURED VALUES) (S. aureus ATCC29213 [8]; S. aureus ATCC29213, 4 × MIC) | FREQUENCY OF DEVELOPMENT OF RESISTANT BACTERIA (AVERAGE OF TWO MEASURED VALUES) (S. aureus ATCC29213 [8]; S. aureus ATCC29213, 8 × MIC) | FREQUENCY OF DEVELOPMENT OF RESISTANT BACTERIA (AVERAGE OF TWO MEASURED VALUES) (S. aureus ATCC29213 [8]; S. aureus ATCC29213, 16 × MIC) | FREQUENCY OF DEVELOPMENT OF RESISTANT BACTERIA (AVERAGE OF TWO MEASURED VALUES) (E. coli ATCC25922 [9]; E. coli ATCC25922, 4 × MIC) | FREQUENCY OF DEVELOPMENT OF RESISTANT BACTERIA (AVERAGE OF TWO MEASURED VALUES) (E. coli ATCC25922 [9]; E. coli ATCC25922, 8 × MIC) | FREQUENCY OF DEVELOPMENT OF RESISTANT BACTERIA (AVERAGE OF TWO MEASURED VALUES) (E. coli ATCC25922 [9]; E. coli ATCC25922, 16 × MIC) | MIC (S. aureus MS5935) [µg/mL] | also measured
1 | COc1c(N2C[C@H](CNC3CC3)[C@H](F)C2)c(F)cc2c(=O)c(C(=O)O)cn(CCF)c12.Cl [Compound D, 7-[(3S,4S)-3-{(cyclopropylamino)methyl}-4-fluoropyrrolidine-1-yl]-6-fluoro-1-(2-fluoroethyl)-8-methoxy-4-oxo-1,4-dihydroquinoline-3-carboxylic acid hydrochloride] | 0.06 | 0.125 | 0.06 | 0.125 | 0.5 | 0.06 | 0.06 | 0.06 | 0.06 | 0.06 | 0.008 | 0.06 | not observed | <2.1 × 10^−9 | <2.1 × 10^−9 | <2.1 × 10^−9 | <1.9 × 10^−9 | <1.9 × 10^−9 | <1.9 × 10^−9 | 0.015 | therapeutic effect, number of bacteria in the lung (S. pneumoniae KY-9 [2]; oral administration): excellent as compared with garenoxacin and levofloxacin; decrease in number of bacteria in the lung versus Vehicle (S. pneumoniae KY-9 [2]; subcutaneous, 6.3 mg and 25 mg/kg): significant dose-dependent decrease; difference in number of viable bacteria in the lung, compound D versus garenoxacin (S. pneumoniae KY-9 [2]; subcutaneous, 25 mg/kg groups): about 1,000 times; development of resistant bacteria (in words) (E. coli ATCC25922 [9]; E. coli ATCC25922, 4 to 16 × MIC): not observed; IC50 ([10]; read-out: IC50 VALUE, QUINOLONE RESISTANT Topoisomerase IV): 5.88 µM; IC50 [11]: 1.53 µM; MIC [12]: 0.03 µg/mL; MIC (S. aureus MS5935 1st): 0.03 µg/mL; MIC (S. aureus MS5935 2nd): 0.125 µg/mL; MIC (S. aureus MS5935 3rd): 0.5 µg/mL; potency (action strength) relative to the other quinolone compounds (S. aureus MS5935 4th; 4th step quadruple mutant S. aureus, from MIC): ≥ 16 times; MIC (S. aureus MS5935 4th): 2 µg/mL; IC50 [13]: 2.73 µM
2 | C[C@H]1NCc2cc(-c3ccc4c(=O)c(C(=O)O)cn(C5CC5)c4c3OC(F)F)ccc21 [GRNX, garenoxacin] | 0.06 (≈ 0.141 µM) | 0.125 (≈ 0.293 µM) | 0.125 (≈ 0.293 µM) | 0.25 (≈ 0.586 µM) | 2 (≈ 4.69 µM) | 0.03 (≈ 0.0704 µM) | 0.015 (≈ 0.0352 µM) | 0.015 (≈ 0.0352 µM) | 0.06 (≈ 0.141 µM) | 0.06 (≈ 0.141 µM) | 0.015 | 0.03 (≈ 0.0704 µM) | developed | 8.2 × 10^−9* | <2.1 × 10^−9 | <2.1 × 10^−9 | <1.9 × 10^−9 | <1.9 × 10^−9 | <1.9 × 10^−9 | 0.015 (≈ 0.0352 µM) | significant decrease in number of bacteria in the lung versus Vehicle (S. pneumoniae KY-9 [2]; subcutaneous, 6.3 mg/kg): not observed; significant decrease in number of bacteria in the lung versus Vehicle (S. pneumoniae KY-9 [2]; subcutaneous, 25 mg/kg): a significant decrease in number of bacteria in the lung was observed; IC50 ([10]; read-out: IC50 VALUE, QUINOLONE RESISTANT Topoisomerase IV (converted)): 63.3 µM; IC50 ([11]; S. aureus enzyme, read-out: IC50 VALUE, Topoisomerase IV (converted)): 4.46 µM; MIC [12]: 0.06 µg/mL (≈ 0.141 µM); MIC (S. aureus MS5935 1st): 0.03 µg/mL (≈ 0.0704 µM); MIC (S. aureus MS5935 2nd): 2 µg/mL (≈ 4.69 µM); MIC (S. aureus MS5935 3rd): 8 µg/mL (≈ 18.8 µM); MIC (S. aureus MS5935 4th): 32 µg/mL (≈ 75 µM); IC50 [13]: 5.16 µM
